Patent publication US20250136558A1, “PYRAZINE COMPOUNDS AS IRREVERSIBLE INHIBITORS OF FLT3” (BIOMEA FUSION, INC., priority 2021, published 2025)

How the values were obtained:
Format in all cases: cell-based
MV-4-11 = assay: Proliferation inhibition (CellTiter-Glo) in MV-4-11 cells; details: Homo sapiens, MV4-11, 96 h, MV-4-11 AML cells, homozygous FLT3-ITD, IC50 (4 days)
Text: (§1) The Proliferation Inhibitory Effect was Investigated in Human AML Cell Lines MOLM-13 (AddexBio: C0003003) [REF: Pubmed: 9305600] and MV-4-11 (ATCC: CRL-9591) [REF PMID: 3496132], and CML cell line […] (ATCC: CRL-3343) [REF PMID: 163658]. Molm-13 is heterozygous for FLT3-ITD mutation, while MV4-11 is homozygous for FLT3-ITD [PMID: 12529668]. […] Cells were maintained in RPMI-1640 medium (ThermoFisher catalog no. 61870036) supplemented with 10% of Heat Inactivated FBS (ThermoFisher catalog no.A31605) and 1% Pen-Strep (Thermofisher catalog no. 10378016) and cultured at 37° C. in a humidified incubator with 5% CO2. Cell lines were […], and the cells were maintained in a range 70%-80% confluency.
(§2) ATP is present in all metabolically active cells and is considered as a marker for cell viability and proliferation. Metabolic cell activity was determined using the CellTiter-Glo kit (Promega catalog no. G7572), an ATP monitoring system based on the production of luminescence by the reaction of ATP with added UltraGlo® recombinant luciferase (Kawano et al., 2016, PLOS One, 8; 11(7):e0158888), according to the supplier's experimental recommendations. The assay was based on a 96 well plate format.
(§3) Test compounds were dissolved at 10 mM in DMSO (Sigma catalog no. D8418; purity 299.9%) and stored at −20° C. Eight concentrations of test compound were assessed in duplicate in an individual test occasion in parallel in the selected cell lines. Gilteratinib and FF-10101 were used as reference compounds and tested in duplicate at eight concentrations. 100% of proliferation is represented by the untreated cells (0.2% DMSO).
(§4) On the day of the experiment (TO), cells were quantified with the cell viability analyser NucleoCounter (Chemometec NC-200) and diluted with fresh medium to obtain the cell density of about 10,000 cells per 200 μL medium. 200 μL of cell suspension were added into wells in the 96 well plate.
(§5) After 2 hours from seeding cells, compounds were added using a D300e compound dispenser (Life Sciences Tecan D300) at desired concentrations with shaking between each compound dispensed. Cell plates containing 200 μL/well suspension were incubated at 37° C. in a humidified incubator with […].
(§6) […] Contents were mixed for 5 min on an orbital shaker to induce cell lysis, and then incubated at room temperature for an additional 10 min in the dark to stabilize the luminescent signal. Luminescence was read by using a GloMax GM300 plate reader (Promega) using the luminescence for 96 well plate standard protocol.
(§7) Results were analysed by GraphPad (Prism) and IC50 values were calculated by non-linear regression using four parameter-logistic equation.

MOLM-13 = assay: Proliferation inhibition (CellTiter-Glo) in MOLM-13 cells; details: Homo sapiens, 96 h, MOLM-13 AML cells, heterozygous FLT3-ITD, IC50 (4 days)
Text: as §1, §2, §3, §4, §5, §6, §7

K-562 = assay: Proliferation inhibition (CellTiter-Glo) in K-562 cells; details: Homo sapiens, K562, 96 h, K-562 CML cells, no FLT3 mutations, IC50 (4 days)
Text: as §1, §2, §3, §4, §5, §6, §7

SMILES | IC50 (MV-4-11) | IC50 (MOLM-13) | IC50 (K-562)
C=CC(=O)N(C)[C@@H](C)C(=O)NCCNc1cc(Nc2nc(NC3CCOCC3)c(CC)nc2C(N)=O)ccn1 [Compound 40, 6-ethyl-3-[[2-[2-[[(2S)-2-[methyl(prop-2-enoyl)amino]propanoyl]amino]ethylamino]-4-pyridyl]amino]-5-(tetrahydropyran-4-ylamino)pyrazine-2-carboxamide] | 1 to 10 nM | 1 to 10 nM | > 500 nM
C=CS(=O)(=O)N(C)[C@@H](C)C(=O)NCCNc1cc(Nc2nc(NC3CCOCC3)c(CC)nc2C(N)=O)ccn1 [Compound 41, 6-ethyl-3-[[2-[2-[[(2S)-2-[methyl(vinylsulfonyl)amino]propanoyl]amino]ethylamino]-4-pyridyl]amino]-5-(tetrahydropyran-4-ylamino)pyrazine-2-carboxamide] | 10 to 100 nM | 10 to 100 nM | > 500 nM
CC#CC(=O)NCCC(=O)NCCc1cc(Nc2nc(NC3CCOCC3)c(CC)nc2C(N)=O)cc(OC)c1 [Compound 101, 3-[3-[2-[3-(but-2-ynoylamino)propanoylamino]ethyl]-5-methoxy-anilino]-6-ethyl-5-(tetrahydropyran-4-ylamino)pyrazine-2-carboxamide] | 10 to 100 nM | 10 to 100 nM | > 500 nM
C=CC(=O)N1CCC(C(=O)Nc2cccc(Nc3nc(NC4CCOCC4)c(CC)nc3C(N)=O)c2)CC1 [Compound 102, 6-ethyl-3-[3-[(1-prop-2-enoylpiperidine-4-carbonyl)amino]anilino]-5-(tetrahydropyran-4-ylamino)pyrazine-2-carboxamide] | 10 to 100 nM | 10 to 100 nM | > 500 nM
CCc1nc(C(N)=O)c(Nc2cc(C#CCNC(=O)[C@H](C)N(C)C(=O)/C=C/CN(C)C)cc(OC)c2)nc1NC1CCOCC1 [Compound 103, 3-[3-[3-[[(2S)-2-[[(E)-4-(dimethylamino)but-2-enoyl]-methyl-amino]propanoyl]amino]prop-1-ynyl]-5-methoxy-anilino]-6-ethyl-5-(tetrahydropyran-4-ylamino)pyrazine-2-carboxamide] | < 1 nM | 1 to 10 nM | > 500 nM
CC#CC(=O)N(C)[C@@H](C)C(=O)NCCOc1cccc(Nc2nc(NC3CCOCC3)c(CC)nc2C(N)=O)c1 [Compound 104, 3-[3-[2-[[(2S)-2-[but-2-ynoyl(methyl)amino]propanoyl]amino]ethoxy]anilino]-6-ethyl-5-(tetrahydropyran-4-ylamino)pyrazine-2-carboxamide] | 1 to 10 nM | 1 to 10 nM | > 500 nM
C=CC(=O)N1CC(CC(=O)Nc2cccc(Nc3nc(NC4CCOCC4)c(CC)nc3C(N)=O)c2)C1 [Compound 105, 6-ethyl-3-[3-[[2-(1-prop-2-enoylazetidin-3-yl)acetyl]amino]anilino]-5-(tetrahydropyran-4-ylamino)pyrazine-2-carboxamide] | 1 to 10 nM | 10 to 100 nM | > 500 nM
C=CC(=O)NCCN1CCc2ccc(Nc3nc(NC4CCOCC4)c(CC)nc3C(N)=O)cc2C1=O [Compound 106] | 10 to 100 nM | 10 to 100 nM | > 500 nM
C=CC(=O)N(C)[C@@H](C)C(=O)NCC#Cc1cc(Nc2nc(NC3CCOCC3)c(CC)nc2C(N)=O)cc(OC)c1 [Compound 107, 6-ethyl-3-[3-methoxy-5-[3-[[(2S)-2-[methyl(prop-2-enoyl)amino]propanoyl]amino]prop-1-ynyl]anilino]-5-(tetrahydropyran-4-ylamino)pyrazine-2-carboxamide] | 1 to 10 nM | 1 to 10 nM | > 500 nM
CC#CC(=O)N(C)[C@@H](C)C(=O)NCC#Cc1cc(Nc2nc(NC3CCOCC3)c(CC)nc2C(N)=O)cc(OC)c1 [Compound 108, 3-[3-[3-[[(2S)-2-[but-2-ynoyl(methyl)amino]propanoyl]amino]prop-1-ynyl]-5-methoxy-anilino]-6-ethyl-5-(tetrahydropyran-4-ylamino)pyrazine-2-carboxamide] | 1 to 10 nM | 1 to 10 nM | > 500 nM
C=CC(=O)N(C)[C@@H](C)C(=O)NCCc1cc(Nc2nc(NC3CCOCC3)c(CC)nc2C(N)=O)cc(OC)c1 [Compound 109, 6-ethyl-3-[3-methoxy-5-[2-[[(2S)-2-[methyl(prop-2-enoyl)amino]propanoyl]amino]ethyl]anilino]-5-(tetrahydropyran-4-ylamino)pyrazine-2-carboxamide] | 1 to 10 nM | 1 to 10 nM | > 500 nM
CCc1nc(C(N)=O)c(Nc2cc(CCNC(=O)[C@H](C)N(C)C(=O)/C=C/CN(C)C)cc(OC)c2)nc1NC1CCOCC1 [Compound 110, 3-[3-[2-[[(2S)-2-[[(E)-4-(dimethylamino)but-2-enoyl]-methyl-amino]propanoyl]amino]ethyl]-5-methoxy-anilino]-6-ethyl-5-(tetrahydropyran-4-ylamino)pyrazine-2-carboxamide] | < 1 nM | 1 to 10 nM | > 500 nM
CC#CC(=O)N(C)[C@@H](C)C(=O)NCCc1cc(Nc2nc(NC3CCOCC3)c(CC)nc2C(N)=O)cc(OC)c1 [Compound 111, 3-[3-[2-[[(2S)-2-[but-2-ynoyl(methyl)amino]propanoyl]amino]ethyl]-5-methoxy-anilino]-6-ethyl-5-(tetrahydropyran-4-ylamino)pyrazine-2-carboxamide] | 1 to 10 nM | 10 to 100 nM | > 500 nM
C=CC(=O)N1CCC(C(=O)Nc2cccc(Nc3nc(NC4CCOCC4)c(CC)nc3C(N)=O)c2)C1 (stereo not drawn) [Compound 112, 6-ethyl-3-[3-[(1-prop-2-enoylpyrrolidine-3-carbonyl)amino]anilino]-5-(tetrahydropyran-4-ylamino)pyrazine-2-carboxamide] | 100 to 500 nM | 100 to 500 nM | > 500 nM
C=CC(=O)N(C)[C@@H](C)C(=O)NCC#Cc1cc(Nc2nc(NC3CCOCC3)c(CC)nc2C(N)=O)ccc1OC [Compound 113, 6-ethyl-3-[4-methoxy-3-[3-[[(2S)-2-[methyl(prop-2-enoyl)amino]propanoyl]amino]prop-1-ynyl]anilino]-5-(tetrahydropyran-4-ylamino)pyrazine-2-carboxamide] | < 1 nM | 1 to 10 nM | > 500 nM
CC#CC(=O)N(C)[C@@H](C)C(=O)NCCCOc1cccc(Nc2nc(NC3CCOCC3)c(CC)nc2C(N)=O)c1 [Compound 114, 3-[3-[3-[[(2S)-2-[but-2-ynoyl(methyl)amino]propanoyl]amino]propoxy]anilino]-6-ethyl-5-(tetrahydropyran-4-ylamino)pyrazine-2-carboxamide] | 1 to 10 nM | 10 to 100 nM | > 500 nM
CCc1nc(C(N)=O)c(Nc2cccc(OC(C)CCNC(=O)[C@H](C)N(C)C(=O)/C=C/CN(C)C)c2)nc1NC1CCOCC1 (stereo partly drawn) [Compound 115, 3-[3-[3-[[(2S)-2-[[(E)-4-(dimethylamino)but-2-enoyl]-methyl-amino]propanoyl]amino]-1-methyl-propoxy]anilino]-6-ethyl-5-(tetrahydropyran-4-ylamino)pyrazine-2-carboxamide] | < 1 nM | 1 to 10 nM | > 500 nM
CCc1nc(C(N)=O)c(Nc2cccc(OC(C)CNC(=O)[C@H](C)N(C)C(=O)/C=C/CN(C)C)c2)nc1NC1CCOCC1 (stereo partly drawn) [Compound 115A, 3-[3-[2-[[(2S)-2-[[(E)-4-(dimethylamino)but-2-enoyl]-methyl-amino]propanoyl]amino]-1-methyl-ethoxy]anilino]-6-ethyl-5-(tetrahydropyran-4-ylamino)pyrazine-2-carboxamide] | < 1 nM | 1 to 10 nM | > 500 nM
CCc1nc(C(N)=O)c(Nc2cccc(OCCCNC(=O)[C@H](C)N(C)C(=O)/C=C/CN(C)C)c2)nc1N(C)C1CCOCC1 [Compound 116, (S,E)-3-((3-(3-(2-(4-(dimethylamino)-N-methylbut-2-enamido)propanamido)propoxy)phenyl)amino)-6-ethyl-5-(methyl(tetrahydro-2H-pyran-4-yl)amino)pyrazine-2-carboxamide] | < 1 nM | < 1 nM | > 500 nM
